Test results reported in US8512707B2, “Methods of treating drug-resistant cancers” (Seattle Genetics, Inc., priority 2006, dated 2013).
Read-outs that look alike come from different tables or passages of the source. Square brackets hold non-standard residues; d marks the D form. Peptide text beside a SMILES is read from it. * marks the point of attachment. Dolaproine = CO[C@@H]([C@@H]1CCCN1)[C@@H](C)C(=O)O; Dil = CC[C@H](C)[C@H](NC)[C@@H](CC(=O)O)OC; X1 = C[C@@H](N*)[C@@H](O)c1ccccc1; NMeV = CN[C@H](C(=O)O)C(C)C

Key:
NCI/ADR-RES cells = assay: Cell killing by free drugs or MMAF-ADCs with or without verapamil; type: cell-based; conditions: for Fold Difference: IC50 drug alone divided by IC50 drug plus verapamil; for IC50: Homo sapiens
Description: NCI/ADR-RES cells were plated and allowed to adhere. Neat culture medium or medium containing 40 μM verapamil was added, and the cultures were incubated for 4 hr. Serial dilutions of the free drugs (doxorubicin, cisplatin or MMAF) or MMAF ADCs (cBR96-vcMMAF or mOKT9-vcMMAF) were then added. The cultures were incubated to 96 hr and labeled with resazurin. Referring to Table 7, the values are the IC50 in […] (doxorubicin, cisplatin, MMAF) or […] (cBR96-vcMMAF, mOKT9-vcMMAF) determined from 4-parameter curve fits. The fold difference is determined by dividing the IC50 from the drug alone treatment by that of the drug treated plus verapamil cultures.

[1] = test system: HCT-15 (colon carcinoma) cells; assay: Alteration of drug potency by verapamil, free drugs; type: cell-based; conditions: for Fold Difference: IC50 drug alone divided by IC50 verapamil plus drug, HCT-15; for IC50: HCT-15, drug alone, 96 hr, resazurin
Description: Verapamil is a known inhibitor of the P-gp transporter. The following study was conducted to measure the effect of verapamil on P-gp-mediated transport of doxorubicin, vincristine, cisplatin and MMAF.
HCT-15 (colon carcinoma) cells were plated and allowed to adhere to the plates. Neat culture medium or medium containing 40 μM verapamil was added, and the cultures were incubated for 4 hr. Serial dilutions of doxorubicin, vincristine, cisplatin or MMAF were then added. The cultures were incubated to 96 hr and labeled with resazurin. Referring to Table 4, the values shown are the IC50 determined from 4-parameter curve fits. The fold difference was determined by dividing the IC50 of the drug alone treatment by that of the verapamil plus drug treated cultures.

[2] = test system: parental and drug resistant cell line pairs; assay: Drug sensitivity across the panel of parental/drug resistant cell line pairs; type: cell-based; conditions: for Mean Fold Resistance: average across the cell line panel; for difference in sensitivity of parent and resistant line: statement over all cell line pairs of Table 3
Description: (§1) The following parental and drug resistant cell lines were used to determine their MMAF-drug sensitivity.
(§2) The activity of various drugs against parental and drug resistant subline pairs was tested. The pairs of cell lines tested were A2780 and A2780adr; MES-SA and MES-SA/Dx5; NCI-H69 and NCI-H69/LX-4; and HL60 and HL60/RV. Cell lines were plated and incubated 24 hr. Culture medium containing serial dilutions of the drugs doxorubicin, vincristine, cisplatin, dolastatin 10 or MMAF were then added. The cultures were incubated to 96 hr and labeled with resazurin. Sensitivity to each drug was measured by determining the IC50 of the parent and drug resistant subline pair. The drug resistance (as “fold resistance”) was determined from the IC50 value of the resistant cell line divided by the IC50 value of the parental line. Mean fold resistance is the average across the cell line panel.

HL60 and HL60/RV = assay: Drug sensitivity of parental and drug resistant subline pair (resazurin); type: cell-based; conditions: IC50 of resistant line divided by IC50 of parental line, 96 hr
Description: as §1, §2

MES-SA and MES-SA/Dx5 = assay: as above; type: cell-based; conditions: IC50 of resistant line divided by IC50 of parental line, 96 hr
Description: as §1, §2

NCI-H69 and NCI-H69/LX-4 = assay: as above; type: cell-based, human; conditions: IC50 of resistant line divided by IC50 of parental line, 96 hr
Description: as §1, §2

A2780 and A2780adr = assay: as above; type: cell-based, human; conditions: IC50 of resistant line divided by IC50 of parental line, 96 hr
Description: as §1, §2

[3] = test system: HCT-15 (colon carcinoma) cells; assay: Alteration of drug potency by verapamil, free drugs; type: cell-based; conditions: read-out: IC50 +10 μM Verapamil, HCT-15, verapamil 4 hr before drug, 96 hr, resazurin
H69 and H69/LX4 = assay: Cytotoxic effects on H69 and its P-glycoprotein overexpressing counterpart; type: cell-based, human; conditions: free drugs, 6 days, Alamar Blue (FIG. 2A, 2B)
Description: (§3) Log phase cultures of cells were collected and cells plated at seeding densities ranging from 500-10,000 cells/well according to pre-determined conditions. After incubating 24 h to allow surface protein reconstitution, serial dilutions of test molecules were added and cultures incubated a further 4-6 days depending on cell line. Assessment of cellular growth and data reduction to generate IC50 values was done using Alamar Blue (Biosource International, Camarillo, Calif.) dye reduction assay as previously described, according to previously published methods (Doronina et al., supra; Hamblett et al., supra; Law et al., 2004, Clin. Cancer Res. 10:7842-51; Francisco et al., supra). Briefly, a 40% solution (wt/vol) of Alamar Blue was freshly prepared in complete media just before cultures were added. Ninety-two hours after drug exposure, Alamar Blue solution was added to cells to constitute 10% culture volume. Cells were incubated for 4 h, and dye reduction was measured on a Fusion HT fluorescent plate reader (Packard Instruments, Meriden, Conn.).

[4] = Maximum tolerated dose of free drugs in mice; type: in vivo; conditions: free drug
From the text: The synthesis of MMAE proceeded through a solution-phase route involving the coupling of the amino-protected N-terminal trimer to the C-terminal dimer. Due to the convergent nature of the process, it was possible to produce a large number of auristatins with varied solubilities, potencies and pharmacokinetic properties. […] MMAF-OMe is a prodrug of MMAF (FIG. 1), with the potential of having facilitated intracellular uptake due to the presence of a neutral C-terminus. In addition, intracellular ester hydrolysis of MMAF-OMe should rapidly generate MMAF, a C-terminally charged molecule expected to have impaired membrane translocation capabilities. […] In addition, the maximum tolerated dose in mice of MMAF (>16 mg/kg) was much higher than MMAE (1 mg/kg). Thus, MMAF was of great interest for targeted delivery, since the free drug had attenuated potency, lower toxicity, and much higher aqueous solubility compared to MMAE. Facilitated intracellular transport was expected to greatly enhance its activity.

[5] = test system: 786-O renal cell carcinoma; assay: In vitro growth inhibition (Alamar Blue); type: cell-based; conditions: Table 8, free auristatins, 96 h
Description: as §3

[6] = test system: H3396 breast carcinoma cells; assay: In vitro growth inhibition (Alamar Blue); type: cell-based; conditions: Table 8, free auristatins, 96 h
Description: as §3

[7] = test system: Caki-1 renal cell carcinoma; assay: In vitro growth inhibition (Alamar Blue); type: cell-based; conditions: Table 8, free auristatins, 96 h
Description: as §3

Karpas 299 cells = assay: In vitro growth inhibition (Alamar Blue); type: cell-based, human; conditions: 96 h
Description: as §3

hematologic cell lines = conditions: previously displayed (Doronina et al.; Law et al.); cited from earlier work
WSU-NHL = assay: In vitro growth inhibition (Alamar Blue), CD30 negative line; type: cell-based, human; conditions: 96 h, ADC concentrations represented by the drug component
Description: as §3
(§4) Cells were exposed to the ADCs continuously for 96 h, and the cytotoxic effects, as determined by Alamar Blue conversion, were compared to those of free MMAF.

[8] = test system: panel of CD30 positive and negative hematologic cell lines; assay: In vitro growth inhibition, panel of hematologic cell lines; type: cell-based; conditions: mean over the lines of Table 9; ADC concentrations represented by the drug component; read-out: IC50 Mean (all lines)
Description: as §3, §4

DEL = assay: In vitro growth inhibition (Alamar Blue); type: cell-based, human; conditions: 96 h, ADC concentrations represented by the drug component
Description: as §3, §4

HDLM-2 = assay: In vitro growth inhibition (Alamar Blue); type: cell-based, human; conditions: 96 h, ADC concentrations represented by the drug component
Description: as §3, §4

SU-DHL-1 = assay: In vitro growth inhibition (Alamar Blue); type: cell-based, human; conditions: 96 h, ADC concentrations represented by the drug component
Description: as §3, §4

SR-786 = assay: In vitro growth inhibition (Alamar Blue); type: cell-based, human; conditions: 96 h, ADC concentrations represented by the drug component
Description: as §3, §4

KMH-2 = assay: In vitro growth inhibition (Alamar Blue); type: cell-based, human; conditions: 96 h, ADC concentrations represented by the drug component
Description: as §3, §4

SUP-M2 = assay: In vitro growth inhibition (Alamar Blue); type: cell-based, human; conditions: 96 h, ADC concentrations represented by the drug component
Description: as §3, §4

L428 = assay: In vitro growth inhibition (Alamar Blue); type: cell-based, human; conditions: 96 h, ADC concentrations represented by the drug component
Description: as §3, §4

Aqueous solubility = type: physicochemical
HH = assay: In vitro growth inhibition (Alamar Blue); type: cell-based; conditions: 96 h, ADC concentrations represented by the drug component
Description: as §3, §4

RPMI 6666 = assay: In vitro growth inhibition (Alamar Blue); type: cell-based; conditions: 96 h, ADC concentrations represented by the drug component
Description: as §3, §4

L540cy = assay: In vitro growth inhibition (Alamar Blue); type: cell-based; conditions: 96 h, ADC concentrations represented by the drug component
Description: as §3, §4

| SMILES | Fold Difference (NCI/ADR-RES cells) | Fold Difference [1] | Mean Fold Resistance [2] | Fold Resistance HL60/RV / HL60 (HL60 and HL60/RV) | Fold Resistance MES-SA/Dx5 / MES-SA (MES-SA and MES-SA/Dx5) | Fold Resistance NCI-H69/LX4 / NCI-H69 (NCI-H69 and NCI-H69/LX-4) | Fold Resistance A2780adr / A2780 (A2780 and A2780adr) | IC50 [5] | IC50 [6] | IC50 [7] | IC50 (Karpas 299 cells; Table 8, free auristatins) | also measured |
| --- | --- | --- | --- | --- | --- | --- | --- | --- | --- | --- | --- | --- |
| N.N.[Cl][Pt][Cl] [Cisplatin] | 0.88 fold | 1.04 fold | 5.5 fold | 13 fold | 1.6 fold | 4.7 fold | 2.7 fold |  |  |  |  | difference in sensitivity of parent and resistant line [2]: thirteen |
| CC[C@H](C)[C@@H]([C@@H](CC(=O)N1CCC[C@H]1[C@H](OC)[C@@H](C)C(=O)N[C@@H](Cc1ccccc1)c1nccs1)OC)N(C)C(=O)[C@@H](NC(=O)[C@H](C(C)C)N(C)C)C(C)C [Dolastatin 10] |  |  | >500 fold |  | 8275 fold |  | 500 fold |  |  |  |  |  |
| COc1cccc2c1C(=O)c1c(O)c3c(c(O)c1C2=O)C[C@@](O)(C(=O)CO)C[C@@H]3O[C@H]1C[C@H](N)[C@H](O)[C@H](C)O1 [Doxorubicin] | 17.9 fold | 5.4 fold | 88 fold | 24 fold | 83 fold | 103 fold | 137 fold |  |  |  |  | IC50 (NCI/ADR-RES cells; 96 h, read-out: IC50 Drug or ADC Only): 10000 nM; IC50 (NCI/ADR-RES cells; read-out: IC50 (Drug or ADC) + 10 μM Verapamil): 560 nM; IC50 ([1]; Homo sapiens): 335 nM; IC50 ([3]; Homo sapiens): 62 nM; fold less sensitive H69/LX-4 compared to the parental cell (H69 and H69/LX4): approximately 100 fold |
| CC[C@H](C)[C@@H]([C@@H](CC(=O)N1CCC[C@H]1[C@H](OC)[C@@H](C)C(=O)N[C@H](C)[C@@H](O)c1ccccc1)OC)N(C)C(=O)[C@@H](NC(=O)[C@@H](NC)C(C)C)C(C)C [MMAE, reference compound] (H-[NMeV]V[Dil][Dolaproine]-X1) |  |  |  |  |  |  |  | 2 nM | 0.1 nM | 0.7 nM | 0.5 nM | maximum tolerated dose in mice [4]: 1 mg/kg; IC50 (hematologic cell lines): 1 to 5 nM |
| CC[C@H](C)[C@@H]([C@@H](CC(=O)N1CCC[C@H]1[C@H](OC)[C@@H](C)C(=O)N[C@@H](Cc1ccccc1)C(=O)O)OC)N(C)C(=O)[C@@H](NC(=O)[C@@H](NC)C(C)C)C(C)C [MMAF, N-methylvaline-valine-dolaisoleuine-dolaproline-phenylalanine] (H-[NMeV]V[Dil][Dolaproine]F-OH) | 6.4 fold | 5.7 fold | 5 fold | 6 fold | 3 fold | 4 fold | 7.5 fold | 257 nM | 105 nM | 200 nM | 119 nM | maximum tolerated dose in mice [4]: > 16 mg/kg; IC50 [1]: 1000 nM; IC50 [3]: 174 nM; IC50 (WSU-NHL): 60.3 nM; IC50 [8]: 70.4 nM; IC50 (DEL): 69 nM; IC50 (HDLM-2): 66 nM; IC50 (SU-DHL-1): 34.7 nM; IC50 (SR-786): 38.1 nM; IC50 (KMH-2): 45.4 nM; IC50 (SUP-M2): 79.7 nM; IC50 (L428): 68 nM; IC50 (Karpas 299 cells; ADC concentrations represented by the drug component): 119 nM; difference in sensitivity of parent and resistant line [2]: thirteen; aqueous solubility compared to MMAE (Aqueous solubility): much higher; IC50 (HH): 30.7 nM; IC50 (RPMI 6666): 164 nM; IC50 (L540cy): 70.4 nM; fold less sensitive H69/LX-4 compared to the parental cell (H69 and H69/LX4): 3 fold |
| CC[C@H](C)[C@@H]([C@@H](CC(=O)N1CCC[C@H]1[C@H](OC)[C@@H](C)C(=O)N[C@@H](Cc1ccccc1)C(=O)OC)OC)N(C)C(=O)[C@@H](NC(=O)[C@@H](NC)C(C)C)C(C)C [MMAF-OMe] (H-[NMeV]V[Dil][Dolaproine]F-OMe) |  |  |  |  |  |  |  | 0.01 nM | < 0.001 nM | < 0.001 nM | < 0.001 nM |  |
| CC[C@]1(O)C[C@H]2CN(CCc3c([nH]c4ccccc34)[C@@](C(=O)OC)(c3cc4c(cc3OC)N(C=O)[C@H]3[C@@](O)(C(=O)OC)[C@H](OC(C)=O)[C@]5(CC)C=CCN6CC[C@]43[C@@H]65)C2)C1 [Vincristine] |  | >10,000 fold | >260 fold | 258 fold | 284 fold | 56888 fold | 2000 fold |  |  |  |  | IC50 ([1]; Homo sapiens): 70 nM; IC50 ([3]; Homo sapiens): < 0.001 nM |
